Biological target: T1, acyl-CoA:cholesterol O-acyltransferase (ACAT) (Oryctolagus cuniculus, UniProt G1SFD9)
T1 construct: The intestinal mucosa of a white rabbit was homogenized and microsomal fraction was obtained by stepwise centrifugation; from tissue; host or cells: intestinal mucosa of white rabbit, microsomal fraction
T1 sequence (G1SFD9 1-524): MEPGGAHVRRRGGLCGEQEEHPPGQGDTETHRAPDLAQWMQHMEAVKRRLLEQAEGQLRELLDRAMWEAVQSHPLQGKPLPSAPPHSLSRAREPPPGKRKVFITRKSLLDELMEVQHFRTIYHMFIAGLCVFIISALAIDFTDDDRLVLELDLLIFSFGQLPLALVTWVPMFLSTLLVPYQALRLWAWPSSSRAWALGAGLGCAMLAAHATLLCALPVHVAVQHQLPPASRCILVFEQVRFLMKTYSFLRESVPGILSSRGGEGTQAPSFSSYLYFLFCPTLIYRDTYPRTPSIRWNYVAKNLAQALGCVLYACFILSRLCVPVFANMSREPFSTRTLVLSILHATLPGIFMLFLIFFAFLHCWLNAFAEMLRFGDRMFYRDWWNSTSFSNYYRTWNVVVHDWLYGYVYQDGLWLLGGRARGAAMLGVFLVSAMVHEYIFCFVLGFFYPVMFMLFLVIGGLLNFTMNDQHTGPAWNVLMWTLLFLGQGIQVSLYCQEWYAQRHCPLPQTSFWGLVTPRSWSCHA
Assay: Inhibitory activity on acyl-CoA:cholesterol O-acyltransferase (ACAT), intestinal mucosa microsomal fraction, [1-14C]oleyl-CoA incorporation into cholesterol esters
Type: biochemical, white rabbit
Conditions: read-out: Inhibition rate %
Method: Inhibitory activity on acyl-CoA:cholesterol Oacyltransferase (ACAT)
The enzyme used in the test was prepared according to the method of Heider et al. [J. Lipid, Res. 24, 1127 (1983)]. The intestinal mucosa of a white rabbit was homogenized and microsomal fraction was obtained by stepwise centrifugation. The microsomal fraction was suspended in 0,154M phosphate buffer (pH 0 7.4) and stored at -80° C. until use.
ACAT activity was determined by a modification of the method of Helgerud et al. [J. Lipid Res. 22, 271 (1981)] by measuring radioactivity incorporated into cholesterol esters from [1-14C]oleyl-CoA, as an indication. As to the ACAT-inhibiting activity of each compound to be tested, the inhibition rate was calculated by the following equation.

| SMILES | inhibition at 0.01 µM [%] | inhibition at 1 µM [%] |
| --- | --- | --- |
| CCc1cccc(CC)c1NC(=O)Nc1oc2ccc(F)cc2c1-c1ccccc1Cl [Compound 1] | 49.8 |  |
| CC(C)c1cccc(C(C)C)c1NC(=O)Nc1oc2ccc(F)cc2c1-c1ccccc1Cl [Compound 2, N-[3-(2-Chlorophenyl)-5-fluorobenzofuran-2-yl]-N'-(2,6-diisopropylphenyl)urea] | 58.3 |  |
| O=C(Nc1ccccc1)Nc1oc2ccc(Cl)cc2c1-c1ccccc1Cl [Compound 4, N-[5-Chloro-3-(2-chlorophenyl)benzofuran-2-yl]-N'-phenylurea] |  | 77.9 |
| Cc1ccccc1NC(=O)Nc1oc2ccc(Cl)cc2c1-c1ccccc1Cl [Compound 5, N-[5-Chloro-3-(2-chlorophenyl)benzofuran-2-yl]-N'-(2-methylphenyl)urea] | 15.4 | 98.5 |
| O=C(Nc1ccccc1C(F)(F)F)Nc1oc2ccc(Cl)cc2c1-c1ccccc1Cl [Compound 7, N-[5-Chloro-3-(2-chlorophenyl)benzofuran-2-yl]-N'-(2-trifluoromethylphenyl)urea] | 37.2 | 99.1 |
| COc1ccccc1NC(=O)Nc1oc2ccc(Cl)cc2c1-c1ccccc1Cl [Compound 8, N-[5-Chloro-3-(2-chlorophenyl)benzofuran-2-yl]-N'-(2-methoxyphenyl)urea] | 24.9 | 97.4 |
| CC(C)c1cccc(C(C)C)c1NC(=O)Nc1oc2ccc(Cl)cc2c1-c1ccccc1Cl [Compound 13, N-[5-Chloro-3-(2-chlorophenyl)benzofuran-2-yl]-N'-(2,6-diisopropylphenyl)urea] | 84.9 | 99.4 |
| Cc1cccc(C(C)C)c1NC(=O)Nc1oc2ccc(Cl)cc2c1-c1ccccc1Cl [Compound 15, N-[5-Chloro-3-(2-chlorophenyl)benzofuran-2-yl]-N'-(2-isopropyl-6-methylphenyl)urea] | 76.8 | 99.4 |
| Cc1cccc(N(C)C)c1NC(=O)Nc1oc2ccc(Cl)cc2c1-c1ccccc1Cl [Compound 19, N-[5-chloro-3-(2-chlorophenyl)benzofuran-2-yl]-N'-(2-dimethylamino-6-methylphenyl)urea] | 71.3 |  |
| Cc1ccc2oc(NC(=O)Nc3c(C(C)C)cccc3C(C)C)c(-c3ccccc3Cl)c2c1 [Compound 22, N-[3-(2-Chlorophenyl)-5-methylbenzofuran-2-yl]-N'-(2,6-diisopropylphenyl)urea] | 69.3 |  |
| CCc1ccc2oc(NC(=O)Nc3c(C(C)C)cccc3C(C)C)c(-c3ccccc3Cl)c2c1 [Compound 25, N-[3-(2-Chlorophenyl)-5-ethylbenzofuran-2-yl]-N'-(2,6-diisopropylphenyl)urea] | 73.3 |  |
| CCc1ccc2oc(NC(=O)Nc3ccc(F)cc3F)c(-c3ccccc3Cl)c2c1 [Compound 26, N-[-3-(2-Chlorophenyl)-5-ethylbenzofuran-2-yl]-N'-(2,4-difluorophenyl)urea] | 41.2 |  |
| CCCCCCc1ccc2oc(NC(=O)Nc3c(C(C)C)cccc3C(C)C)c(-c3ccccc3Cl)c2c1 [Compound 27, N-[3-(2-Chlorophenyl)-5-n-hexylbenzofuran-2-yl]-N'-(2,6-diisopropylphenyl)urea] | 63.5 |  |
| COc1ccc2oc(NC(=O)Nc3c(C(C)C)cccc3C(C)C)c(-c3ccccc3Cl)c2c1 [Compound 30, N-[3-(2-Chlorophenyl)-5-methoxybenzofuran-2-yl]-N'-(2,6-diisopropylphenyl)urea] | 58.4 |  |
| Cc1cc2oc(NC(=O)Nc3c(C)cccc3C)c(-c3ccccc3Cl)c2cc1C [Compound 36, N-[3-(2-Chlorophenyl)-5,6-dimethylbenzofuran-2-yl]-N'-(2,6-dimethylphenyl)urea] | 37.6 | 98.9 |
| Cc1cc2oc(NC(=O)Nc3c(C(C)C)cccc3C(C)C)c(-c3ccccc3Cl)c2cc1C [Compound 38, N-[3-(2-Chlorophenyl)-5,6-dimethylbenzofuran-2-yl]-N'-(2,6-diisopropylphenyl)urea] | 77.2 | 99.5 |
| Cc1cc2oc(NC(=O)Nc3c(C)cccc3C(C)C)c(-c3ccccc3Cl)c2cc1C [Compound 39] | 70.9 | 99.4 |
| Cc1cc(C)c2oc(NC(=O)Nc3c(C(C)C)cccc3C(C)C)c(-c3ccccc3Cl)c2c1 [Compound 43, N-[3-(2-Chlorophenyl)-5,7-dimethylbenzofuran-2-yl]-N'-(2,6-diisopropylphenyl)urea] | 52.1 | 99.5 |
| Cc1cc(C)c(NC(=O)Nc2oc3c(C)cc(C)cc3c2-c2ccccc2Cl)c(C)c1 [Compound 45, N-[3-(2-Chlorophenyl)-5,7-dimethylbenzofuran-2-yl]-N'-(2,4,6-trimethylphenyl)urea] |  | 94 |
| Cc1cc(C)c2oc(NC(=O)Nc3ccc(F)cc3F)c(-c3ccccc3Cl)c2c1 [Compound 46, N-[3-(2-Chlorophenyl)-5,7-dimethylbenzofuran-2-yl]-N'-(2,4-difluorophenyl)urea] |  | 92.7 |
| Cc1cc(C)c2oc(NC(=O)Nc3c(F)cccc3F)c(-c3ccccc3Cl)c2c1 [Compound 47, N-[3-(2-Chlorophenyl)-5,7-dimethylbenzofuran-2-yl]-N'-(2,6-difluorophenyl)urea] |  | 93 |
| Cc1cc(C)c2oc(NC(=O)Nc3c(F)cc(F)cc3F)c(-c3ccccc3Cl)c2c1 [Compound 48, N-[3-(2-Chlorophenyl)-5,7-dimethylbenzofuran-2-yl]-N'-(2,4,6-trifluorophenyl)urea] | 6.8 | 95.6 |
| Cc1cc(C)c2oc(NC(=O)Nc3c(Cl)cccc3Cl)c(-c3ccccc3Cl)c2c1 [Compound 49, N-[3-(2-Chlorophenyl)-5,7-dimethylbenzofuran-2-yl]-N'-(2,6-dichlorophenyl)urea] | 51.9 | 99.1 |
| CC(C)c1cccc(C(C)C)c1NC(=O)Nc1oc2cc3c(cc2c1-c1ccccc1Cl)CCC3 [Compound 53, N-[3-(2-Chlorophenyl)-6,7-dihydro-5H-cyclopenta[f]benzofuran-2-yl]-N'-(2,6-diisopropylphenyl)urea] | 43.7 |  |
| O=C(Nc1ccc(F)cc1F)Nc1oc2cc3c(cc2c1-c1ccccc1Cl)CCC3 [Compound 55, N-[3-(2-Chlorophenyl)-6,7-dihydro-5H-cyclopenta[f]benzofuran-2-yl]-N'-(2,4-difluorophenyl)urea] | 32.1 |  |
| CC(C)c1cccc(C(C)C)c1NC(=O)Nc1oc2ccc(Cl)cc2c1-c1ccccc1F [Compound 58, N-[5-Chloro-3-(2-fluorophenyl)benzofuran-2-yl]-N'-(2,6-diisopropylphenyl)urea] | 69.2 |  |
| CCc1cccc(CC)c1NC(=O)Nc1oc2ccc(Cl)cc2c1-c1ccccc1C [Compound 60, N-[5-Chloro-3-(2-methylphenyl)benzofuran-2-yl]-N'-(2,6-diethylphenyl)urea] | 82.6 |  |
| Cc1ccccc1-c1c(NC(=O)Nc2c(C(C)C)cccc2C(C)C)oc2ccc(Cl)cc12 [Compound 61, N-[5-Chloro-3-(2-methylphenyl)benzofuran-2-yl]-N'-(2,6-diisopropylphenyl)urea] | 65.6 |  |
| CCc1cccc(CC)c1NC(=O)Nc1oc2ccc(Cl)cc2c1-c1ccccc1SC [Compound 62, N-[5-Chloro-3-(2-methylthiophenyl)benzofuran-2-yl]-N'-(2,6-diethylphenyl)urea] | 91.6 |  |

— USRE36832E, “N-heteroaryl-N'-phenylurea derivatives, their production and use” (Nihon Nohyaku Co., LTD, priority 1993, dated 2000)
